Assay results as given in US10294202B2, “Pyrrolidinones as herbicides” (FMC Corporation, priority 2013, dated 2019).

Legend:
Experiment in all cases: Test D pre-/postemergence herbicide test
[1] = tested on: deadnettle; format: in vivo, Lamium amplexicaule; settings: for Plant response rating: Deadnettle, scale 0 to 100; for Plant response rating, Deadnettle: scale 0 to 100 (0 no effect, 100 complete control)
How it was run: (§1)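 Visual injury score, 0 (no effect) to 100 (complete control), taken 7–21 d post-treatment against untreated controls. Application was preemergence in silt loam and postemergence at 1- to 4-leaf stage, using a surfactant-containing non-phytotoxic solvent formulation.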

[2] = tested on: buckwheat, wild; format: in vivo, Polygonum convolvulus; settings: for Plant response rating: Buckwheat, Wild, scale 0 to 100; for Plant response rating, Buckwheat, Wild: scale 0 to 100 (0 no effect, 100 complete control)
How it was run: as §1

[3] = tested on: galium; format: in vivo, Galium aparine; settings: for Plant response rating: Galium, scale 0 to 100; for Plant response rating, Galium: scale 0 to 100 (0 no effect, 100 complete control)
How it was run: as §1

[4] = tested on: blackgrass; format: in vivo, Alopecurus myosuroides; settings: for Plant response rating: Blackgrass, scale 0 to 100; for Plant response rating, Blackgrass: scale 0 to 100 (0 no effect, 100 complete control)
How it was run: as §1

[5] = tested on: bluegrass; format: in vivo, Poa annua; settings: for Plant response rating: Bluegrass, scale 0 to 100; for Plant response rating, Bluegrass: scale 0 to 100 (0 no effect, 100 complete control)
How it was run: as §1

[6] = tested on: foxtail, green; format: in vivo, Setaria viridis; settings: for Plant response rating: Foxtail, Green, scale 0 to 100; for Plant response rating, Foxtail, Green: scale 0 to 100 (0 no effect, 100 complete control)
How it was run: as §1

[7] = tested on: bromegrass, downy; format: in vivo, Bromus tectorum; settings: for Plant response rating: Bromegrass, Downy, scale 0 to 100; for Plant response rating, Bromegrass, Downy: scale 0 to 100 (0 no effect, 100 complete control)
How it was run: as §1

O=C1NCC(c2ccc(Cl)c(F)c2)C1C(=O)Nc1cccc(F)c1F (stereo not shown) [Compound 52] was tested, and the Plant response rating ([1]; Postemergence, 16 g ai/ha) was 0, the Plant response rating ([1]; Postemergence, 31 g ai/ha) was 0 and the Plant response rating ([1]; Postemergence, 62 g ai/ha) was 0. The Plant response rating ([1]; Postemergence, 125 g ai/ha) was 20, the Plant response rating ([1]; Postemergence, 250 g ai/ha) was 25 and the “Plant response rating, Deadnettle” value ([1]; Preemergence, 62 g ai/ha) was 0. The “Plant response rating, Deadnettle” value ([1]; Preemergence, 16 g ai/ha) was 0, the “Plant response rating, Deadnettle” value ([1]; Preemergence, 31 g ai/ha) was 0 and the Plant response rating ([1]; Preemergence, 125 g ai/ha) was 0. It also gave a Plant response rating ([1]; Preemergence, 250 g ai/ha) of 30, a Plant response rating ([2]; Postemergence, 16 g ai/ha) of 0 and a Plant response rating ([2]; Postemergence, 31 g ai/ha) of 0. For the same compound, the Plant response rating ([2]; Postemergence, 62 g ai/ha) was 0, the Plant response rating ([2]; Postemergence, 125 g ai/ha) was 0 and the Plant response rating ([2]; Postemergence, 250 g ai/ha) was 0. The “Plant response rating, Buckwheat, Wild” value ([2]; Preemergence, 62 g ai/ha) was 0, the “Plant response rating, Buckwheat, Wild” value ([2]; Preemergence, 16 g ai/ha) was 0 and the “Plant response rating, Buckwheat, Wild” value ([2]; Preemergence, 31 g ai/ha) was 0. For the same compound, the Plant response rating ([2]; Preemergence, 125 g ai/ha) was 10, the Plant response rating ([2]; Preemergence, 250 g ai/ha) was 10 and the Plant response rating ([3]; Postemergence, 16 g ai/ha) was 0. The Plant response rating ([3]; Postemergence, 31 g ai/ha) was 0, the Plant response rating ([3]; Postemergence, 62 g ai/ha) was 0 and the Plant response rating ([3]; Postemergence, 125 g ai/ha) was 25. The Plant response rating ([3]; Postemergence, 250 g ai/ha) was 35, the “Plant response rating, Galium” value ([3]; Preemergence, 62 g ai/ha) was 0 and the “Plant response rating, Galium” value ([3]; Preemergence, 16 g ai/ha) was 0. The “Plant response rating, Galium” value ([3]; Preemergence, 31 g ai/ha) was 0, the Plant response rating ([3]; Preemergence, 125 g ai/ha) was 0 and the Plant response rating ([3]; Preemergence, 250 g ai/ha) was 20. For the same compound, the Plant response rating ([4]; Postemergence, 16 g ai/ha) was 0, the Plant response rating ([4]; Postemergence, 31 g ai/ha) was 0 and the Plant response rating ([4]; Postemergence, 62 g ai/ha) was 0. The Plant response rating ([4]; Postemergence, 125 g ai/ha) was 0, the Plant response rating ([4]; Postemergence, 250 g ai/ha) was 0 and the “Plant response rating, Blackgrass” value ([4]; Preemergence, 62 g ai/ha) was 0. The “Plant response rating, Blackgrass” value ([4]; Preemergence, 16 g ai/ha) was 0, the “Plant response rating, Blackgrass” value ([4]; Preemergence, 31 g ai/ha) was 0 and the Plant response rating ([4]; Preemergence, 125 g ai/ha) was 0. For the same compound, the Plant response rating ([4]; Preemergence, 250 g ai/ha) was 0, the Plant response rating ([5]; Postemergence, 16 g ai/ha) was 0 and the Plant response rating ([5]; Postemergence, 31 g ai/ha) was 0. For the same compound, the Plant response rating ([5]; Postemergence, 62 g ai/ha) was 0, the Plant response rating ([5]; Postemergence, 125 g ai/ha) was 0 and the Plant response rating ([5]; Postemergence, 250 g ai/ha) was 0. The “Plant response rating, Bluegrass” value ([5]; Preemergence, 62 g ai/ha) was 0, the “Plant response rating, Bluegrass” value ([5]; Preemergence, 16 g ai/ha) was 0 and the “Plant response rating, Bluegrass” value ([5]; Preemergence, 31 g ai/ha) was 0. It also gave a Plant response rating ([5]; Preemergence, 125 g ai/ha) of 0, a Plant response rating ([5]; Preemergence, 250 g ai/ha) of 20 and a Plant response rating ([6]; Postemergence, 16 g ai/ha) of 0. The Plant response rating ([6]; Postemergence, 31 g ai/ha) was 0, the Plant response rating ([6]; Postemergence, 62 g ai/ha) was 0 and the Plant response rating ([6]; Postemergence, 125 g ai/ha) was 0. The Plant response rating ([6]; Postemergence, 250 g ai/ha) was 0, the “Plant response rating, Foxtail, Green” value ([6]; Preemergence, 62 g ai/ha) was 0 and the “Plant response rating, Foxtail, Green” value ([6]; Preemergence, 16 g ai/ha) was 0. The “Plant response rating, Foxtail, Green” value ([6]; Preemergence, 31 g ai/ha) was 0, the Plant response rating ([6]; Preemergence, 125 g ai/ha) was 0 and the Plant response rating ([6]; Preemergence, 250 g ai/ha) was 60. For the same compound, the Plant response rating ([7]; Postemergence, 16 g ai/ha) was 0, the Plant response rating ([7]; Postemergence, 31 g ai/ha) was 0 and the Plant response rating ([7]; Postemergence, 62 g ai/ha) was 0. For the same compound, the Plant response rating ([7]; Postemergence, 125 g ai/ha) was 0, the Plant response rating ([7]; Postemergence, 250 g ai/ha) was 0 and the “Plant response rating, Bromegrass, Downy” value ([7]; Preemergence, 62 g ai/ha) was 0. The “Plant response rating, Bromegrass, Downy” value ([7]; Preemergence, 16 g ai/ha) was 0, the “Plant response rating, Bromegrass, Downy” value ([7]; Preemergence, 31 g ai/ha) was 0 and the Plant response rating ([7]; Preemergence, 125 g ai/ha) was 0. For the same compound, the Plant response rating ([7]; Preemergence, 250 g ai/ha) was 0.
